Article PMC9787607, “A Novel Protocol for the Synthesis of 1,2,4-Oxadiazoles Active against Trypanosomatids and Drug-Resistant Leukemia Cell Lines” (Tropical Medicine and Infectious Disease, 2022)
Like-named read-outs stand apart in the source and are kept apart here.

What was measured:
[1] = tested on: L. amazonensis amastigotes; test: Anti-L. amazonensis amastigote assessment in RAW 264.7 macrophages; assay type: cell-based, Leishmania amazonensis
Experimental: RAW 264.7 cells were seeded in a 96-well microplate (2.0 × 10^4 cells per well) in complete DMEM with 5% FBS and incubated for 3 h at 37 °C in 5% CO2 for cell adhesion. The medium was renewed, and L. amazonensis promastigotes (3.0 × 10^5 parasites per well) were added. After 24 h of incubation at 37 °C in 5% CO2, the cell monolayer was washed with PBS to remove noninternalized parasites, the medium was renewed, and compounds were added at a range of concentrations in triplicate (100–1 μM). Untreated infected cells and noninfected RAW 264.7 cells were used as negative and positive controls, respectively. Vehicle control containing DMEM and 0.3% DMSO was maintained for comparison. After incubation for 48 h at 37 °C in 5% CO2, the medium was removed, and a solution containing 0.02% SDS in PBS (20 µL per well) was added. Macrophage lysis and amastigote release were accompanied under an inverted microscope for 10–15 min. SIM with 12.5% SFB (80 µL per well) was added, parasites were allowed to differentiate into promastigotes for 48 h at 27 °C, and an MTT salt solution in PBS was added (3.0 mM, 20 µL per well). After incubation for 2 h at 27 °C, the MTT formazan was dissolved by adding 120 µL of solubilizing buffer (50% isopropanol, 40% acetate buffer pH 5.4, 10% Triton X). Absorbance was measured using a microplate reader at 570 nm.
(§1) The percent cell or parasite viability was calculated by the formula: % viability = [(A − P)/(N − P)] × 100, A = absorbance of specific well, P = positive control, N = negative control. Determination of half-maximal effective concentrations (EC50), calculated by logarithmic regression, and significance analysis (p < 0.05), using ANOVA and Dunnett’s test, by GraphPad Prism 7.0 software. The results are expressed as the mean and standard deviation (SD) of three independent experiments.

[2] = tested on: L. amazonensis promastigotes; test: Anti-L. amazonensis promastigote assessment (MTT); assay type: cell-based; conditions: Leishmania amazonensis, 48 h, read-out: EC50 L. amazonensis promastigotes
Experimental: Promastigotes of L. amazonensis (MHOM/BR/75/Josefa) were cultured in Schneider’s insect medium (SIM) with 10% FBS. Parasites were harvested at the stationary growth phase for assessment against promastigotes and 24 h after cultures reached the stationary growth phase for infection assays. […]. Complete SIM media and amphotericin B (AmB) at 10 µM were used as negative and positive controls, respectively. A vehicle control containing SIM with 10% SFB media and 0.3% DMSO was maintained for comparison. The final volume of the experiment was 100 µL. After incubation for 48 h at 27 °C, MTT salt solution in PBS was added (3.0 mM, 20 µL per well). After incubation for 2 h at 27 °C, the MTT formazan was dissolved by adding 120 µL of solubilizing buffer (50% isopropanol, 40% acetate buffer pH 5.4, 10% Triton-X). Absorbance was measured using a microplate reader at 570 nm.
as §1

RAW 264.7 cells = test: Cytotoxicity to RAW 264.7 cells (MTT); assay type: cell-based, murine; conditions: Mus musculus, RAW264.7, 48 h, read-out: EC50 RAW
Experimental: (§2) LLC-MK2 kidney fibroblasts (ATCC) and RAW 264.7 macrophages (ATCC) were cultivated in culture flasks in complete DMEM with 5% FBS at 37 °C in 5% CO2. The LLC-MK2 cell monolayer was detached by treatment with trypsin-EDTA 0.05% for 5 min at 37 °C. The RAW cell monolayer was detached mechanically. In both cases, the cells were centrifuged at 480× g for 6 min and resuspended in complete DMEM with 5% FBS, and the cell density was determined by counting with trypan-blue dye exclusion on Neubauer chambers before use.
RAW 264.7 cells were seeded in a 96-well microplate (2.0 × 10^4 cells per well) in complete DMEM with 5% FBS (120 µL per well). After incubation for 24 h at 37 °C in 5% CO2, the medium was renewed, and compounds were added at a range of concentrations in triplicate (100–1 μM). Untreated cells and cells treated with DMEM and 10% DMSO were used as negative and positive controls, respectively. Vehicle control containing DMEM and 0.3% DMSO was maintained for comparison. After incubation for 48 h at 37 °C in 5% CO2, the medium was renewed, and an MTT solution in PBS was added (3.0 mM, 20 µL per well). After incubation for 2 h at 37 °C in 5% CO2, the supernatant was removed, and MTT formazan was dissolved in DMSO (150 µL per well). Absorbance was measured using a microplate reader at 570 nm.
as §1

LLC-MK2 cells = test: Cytotoxicity to LLC-MK2 host cells (MTT); assay type: cell-based; conditions: Macaca mulatta, LLC-MK2; 120 h, MTT
Experimental: as §2
(§3) LLC-MK2 cells were seeded in a 96-well microplate (1.0 × 10^4 cells per well) in complete DMEM with 5% FBS (120 µL per well). After incubation for 24 h at 37 °C in 5% CO2, the medium was renewed, and compounds were added at a range of concentrations in triplicate (50 μM or 100–1 μM). Untreated cells and cells treated with DMEM and 10% DMSO were used as negative and positive controls, respectively. Vehicle control containing DMEM and 0.3% DMSO was maintained for comparison. After incubation for 120 h at 37 °C in 5% CO2, the medium was renewed, and MTT salt solution in PBS was added (3.0 mM, 20 µL per well). After incubation for 2 h at 37 °C in 5% CO2, the supernatant was removed, and MTT formazan was dissolved in DMSO (150 µL per well). Absorbance was measured using a microplate reader at 570 nm.
as §1

[3] = tested on: T. cruzi amastigotes (Tulahuen C2C4 LacZ strain); test: microbe, parasite or virus in culture; assay type: cell-based, Trypanosoma cruzi; conditions: Trypanosoma cruzi, TULAHUEN; for viability at 50 µM: LLC-MK2, 120 h, screening at 50 μM, 120 h, compared with untreated controls
Experimental: To a monolayer of 1.0 × 10^7 LLC-MK2 cells in a 150 cm^2 culture flask were added 5.0 × 10^7 trypomastigotes of T. cruzi expressing the […] (Tulahuen C2C4 LacZ) in complete DMEM with 2.5% FBS. The infection was allowed to occur for 24 h, the supernatant was removed, and the cell monolayer was washed with PBS. Complete DMEM with 2.5% FBS was renewed every 2 days up to the sixth day after infection. Trypomastigote forms were collected daily from the supernatant between days 7 and 12 after infection, enriched by differential centrifugation (1500× g for 10 min, 5580× g for 20 min), and resuspended in complete DMEM with 5% FBS. Parasite density was determined by counting the mobile trypomastigotes on Neubauer chambers before use.
. The medium was renewed, and trypomastigote forms of T. cruzi (Tulahuen C2C4 LacZ strain, 2.0 × 10^5 parasites per well) were added. After incubation for 24 h at 37 °C in 5% CO2, the cell monolayer was washed with PBS to remove noninternalized parasites. DMEM without phenol red and 5% FBS was added, and infected cells were treated with compounds at a range of concentrations in triplicate (50 μM or 100–1 μM). Untreated infected cells and noninfected LLC-MK2 cells were used as negative and positive controls, respectively. Vehicle control containing DMEM without phenol red and 0.3% DMSO was maintained for comparison. After incubation for 120 h at 37 °C in 5% CO2, a solution containing […] and 0.8% IGEPAL CA-630 in PBS (30 µL per well), followed by further incubation for 2 h at 37 °C in 5% CO2. Absorbance was measured using a microplate reader at 570 nm.
as §1

T. cruzi epimastigotes = tested on: T. cruzi epimastigotes; parameters: method as in PMID 19517898; conditions: T. cruzi epimastigotes at 50 μM; cited from earlier work
Lucena-1 (K562/VCR) = test: cells; assay type: cell-based, human; conditions: for RR (relative resistance) Lucena-1: (EC50 MDR cells)/(EC50 parental cells), Lucena-1/K562; for EC50: Homo sapiens, Lucena 1, 72 h, read-out: EC50 Lucena-1
Experimental: (§4) The CML cell lines K562, Lucena-1 (K562/VCR), and FEPS (K562/DNR) were cultured in RPMI-1640 medium supplemented with 25 mM HEPES and 2 g L^−1 sodium bicarbonate adjusted to pH 7.4 with NaOH, 100 U penicillin and […] streptomycin. All media were supplemented with 10% FBS. Dr. Vivian M. Rumjanek (Instituto de Bioquímica Médica, UFRJ, Brazil) kindly donated Lucena-1 and FEPS cells. Briefly, K562 cells were exposed to increasing concentrations of the chemotherapeutic drugs vincristine sulfate (VCR) and daunorubicin hydrochloride (DNR) (both from Sigma-Aldrich), as described previously. Lucena-1 (K562/VCR) and FEPS (K562/DNR) cells were cultured in the presence of either 60 nM VCR or 500 nM DNR to maintain the MDR phenotypes. For subcultures, cells were harvested every three days followed by washing with cold FBS, and a final concentration of 2 × 10^4 cells mL^−1 was maintained at 37 °C in 5% CO2.
(§5) Cell viability was determined by the 3-(4,5-dimethylthiazol-2-yl)-2,5-diphenyltetrazolium (MTT) colorimetric assay. CML cells (2 × 10^4 cells·mL^−1) were incubated for 72 h at 37 °C, followed by treatment with compounds at a range of concentrations (100–1 μM). Negative controls were prepared with 0.5% DMSO. An MTT salt solution was added to each well to a final concentration of 0.5 g·L^−1, and plates were incubated at 37 °C in 5% CO2 for 3 h. After centrifugation, 200 μL DMSO was added to dissolve the dark-blue formazan crystals formed by MTT reduction. Absorbance was measured on a microplate reader at 570 nm, which is directly proportional to formazan contents and indicative of living cells.
as §1

K562 = test: MTT cytotoxicity to CML cell line K562; assay type: cell-based; conditions: Homo sapiens, 72 h
Experimental: as §4, §5, §1

[4] = Cytotoxicity to LLC-MK2 host cells (MTT); assay type: cell-based; conditions: rhesus monkey, LLC-MK2 cells (kidney fibroblasts); screening at 50 μM, 120 h
Experimental: as §2, §3, §1

[5] = Cytotoxicity to BALB/c mouse total splenocytes (MTT); assay type: cell-based; conditions: male, total splenocytes (primary), 100 μM, 48 h, compared to the untreated control (Table S1)
Experimental: BALB/c mouse total splenocytes were harvested from male mice between 6–8 weeks old. After euthanasia, the spleens were removed and macerated in DMEM. After centrifugation, the cells were treated with hemolytic ACK buffer at 37 °C for 5 min. […] After incubation for 48 h at 37 °C in 5% CO2, cell viability was determined after the addition of 20 µL per well of a solution containing MTT salt (3.0 mM) and phenazine metasulphate (0.72 mM). After further incubation for 1 h at 37 °C, the medium was removed, and DMSO was added to dissolve the dark-blue formazan crystals formed by MTT reduction. Absorbance was measured on a microplate reader at 570 nm.
as §1

FEPS (K562/DNR) = test: MTT cytotoxicity to MDR CML cell line FEPS; assay type: cell-based, human; conditions: for RR (relative resistance) FEPS: (EC50 MDR cells)/(EC50 parental cells), FEPS/K562; for EC50: Homo sapiens, K562, 72 h, MTT
Experimental: as §4, §5, §1

Compound | EC50 ([1]; Leishmania amazonensis, RAW264.7, 48 h, read-out: EC50 L. amazonensis intracellular amastigotes) [µM] | S.I. (selectivity index) ([1]; host cell/parasite EC50 ratio, RAW/L. amazonensis) | EC50 [2] [µM] | EC50 (RAW 264.7 cells) [µM] | EC50 (LLC-MK2 cells) [µM] | viability at 50 µM [3] [%] | EC50 ([3]; in LLC-MK2, 120 h, read-out: EC50 T. cruzi intracellular amastigotes) [µM] | apoptosis (T. cruzi epimastigotes) [%] | necrosis (T. cruzi epimastigotes) [%] | parasite death (T. cruzi epimastigotes) [%] | RR (relative resistance) Lucena-1 (Lucena-1 (K562/VCR)) | EC50 (Lucena-1 (K562/VCR)) [µM] | EC50 (K562) [µM] | EC50 ([2]; MTT) [µM] | viability at 120 h, 50 µM [4] [%] | viability at 48 h, 100 µM [5] [%] | melting point [°C] | RR (relative resistance) FEPS (FEPS (K562/DNR)) | EC50 (FEPS (K562/DNR)) [µM]
C[C@@H]1[C@H](O)[C@@H](C)/C=C/C=C/C=C/C=C/C=C/C=C/C=C/[C@H](O[C@@H]2O[C@H](C)[C@@H](O)[C@H](N)[C@@H]2O)C[C@@H]2O[C@](O)(C[C@@H](O)C[C@@H](O)[C@H](O)CC[C@@H](O)C[C@@H](O)CC(=O)O[C@H]1C)C[C@H](O)[C@H]2C(=O)O [Amphotericin B, reference compound] | 0.151 ± 0.022 | 65.2 | 0.094 ± 0.001 | 9.8 ± 3.3 | – | – | – | – | – | – | – | – | – | – | – | – | – | – | –
O=C(Cn1ccnc1[N+](=O)[O-])NCc1ccccc1 [Benznidazole, reference compound] | – | – | – | – | > 100 | 23.2 ± 1.4 | 1.5 ± 0.2 | – | – | – | – | – | – | – | – | – | – | – | –
COc1ccc(OC)c(/C=C/C(=O)Nc2nc3ccccc3s2)c1 [Compound 1] | – | – | – | – | – | – | – | 40.2 | 17.9 | 58.1 | – | – | – | – | – | – | – | – | –
COc1cc(-c2noc(/C=C/c3ccccc3)n2)cc(OC)c1OC [Compound 21, (E)-3-(3,4,5-trimethoxyphenyl)-5-[2-phenylvinyl]-1,2,4-oxadiazole] | – | – | – | – | – | 77.3 ± 2 | – | – | – | – | <0.69 | 68.6 ± 10.1 | > 100 | > 100 | 88.5 ± 4.7 | 76.8 ± 6.6 | 138 to 140 | <0.28 | 27.7 ± 5.2
COc1cccc(/C=C/c2nc(-c3cc(OC)c(OC)c(OC)c3)no2)c1 [Compound 22, (E)-3-(3,4,5-trimethoxyphenyl)-5-[2-(3-methoxyphenyl)-vinyl]-1,2,4-oxadiazole] | – | – | – | – | – | 66.1 ± 2.3 | – | – | – | – | <0.73 | 72.9 ± 3 | > 100 | > 100 | 87.1 ± 1.7 | 63.5 ± 2.4 | 117 to 119 | <0.36 | 36.1 ± 12.4
COc1cc(-c2noc(/C=C/c3ccco3)n2)cc(OC)c1OC [Compound 25, (E)-3-(3,4,5-trimethoxyphenyl)-5-[2-(fur-2-yl)vinyl]-1,2,4-oxadiazole] | – | – | – | – | – | 79.5 ± 5.5 | – | – | – | – | 1.05 | 76.6 ± 6.1 | 72.8 ± 9.1 | > 100 | 73.5 ± 1.7 | 63.7 ± 4.7 | 144 to 146 | 0.74 | 53.7 ± 3.6
